Results taken from patent publication US9700546B2, “Trivalent chromium compounds, compositions and methods of use” (INTERHEALTH NUTRACEUTICALS, INC., priority 2006, dated 2017).
Like-named read-outs stand apart in the source and are kept apart here.

How the values were obtained:
Obese Zucker rats [1] = test: In vivo assessment in obese Zucker rats: vascular inflammation markers (MCP-1, CRP, RBP-4, leptin, ICAM, adiponectin); settings: obese Zucker rats, daily 400 μg Cr(III)/kg, 8 weeks, mean; for Adiponectin / CRP / MCP-1: plasma, ELISA
Obese Zucker rats [2] = test: In vivo assessment in obese Zucker rats: other vascular inflammation markers (cAMP, TNFα, IL-6, OxyDNA); settings: obese Zucker rats, daily 400 μg Cr(III)/kg, 8 weeks, mean ± SE; for OxyDNA: oxidative DNA damage
Obese Zucker rats [3] = test: In vivo assessment in obese Zucker rats: key biological parameters (fasting glucose, HbA1c, vitamin C, GSH, RBC lipid peroxidation); settings: obese Zucker rats, daily 400 μg Cr(III)/kg, 8 weeks, mean; for RBC Lipid Peroxidase: malondialdehyde by thiobarbituric acid; for Fasting Glucose: fasted overnight
Obese Zucker rats [4] = test: In vivo assessment in obese Zucker rats: clinical chemistry (AP, BUN, CRT, AST, ALT); settings: obese Zucker rats; mean ± SE
Obese Zucker rats [5] = test: In vivo assessment in obese Zucker rats: blood lipid profile (total cholesterol, triglycerides, HDL); settings: daily 400 μg Cr(III)/kg, 8 weeks, mean
Obese Zucker rats [6] = settings: rat, in vivo

Molecule | Leptin (Obese Zucker rats [1]) [pg/mL] | RBP-4 (Obese Zucker rats [1]) [ng/mL] | Adiponectin (Obese Zucker rats [1]) [ng/mL] | CRP (Obese Zucker rats [1]) [ng/mL] | MCP-1 (Obese Zucker rats [1]) [pg/mL] | IL-6 (Obese Zucker rats [2]) [pg/mL] | TNFα (Obese Zucker rats [2]) [pg/mL] | cAMP (Obese Zucker rats [2]) [pmol/mL] | OxyDNA (Obese Zucker rats [2]) [ng/mL] | RBC Lipid Peroxidase (Obese Zucker rats [3]) [nmol/mL] | Fasting Glucose (Obese Zucker rats [3]) [mg/dL] | GSH (Obese Zucker rats [3]) [µmol/g] | HbA1c (Obese Zucker rats [3]) [%] | ALT (Alanine Aminotransferease) (Obese Zucker rats [4]) [u/L] | AP (Alkaline phosphatase) (Obese Zucker rats [4]) [u/L] | AST (Aspartate Aminotransferase) (Obese Zucker rats [4]) [u/L] | HDL (Obese Zucker rats [5]) [mg/dL] | Total Chol/HDL (Obese Zucker rats [5]) [ratio] | Total Cholesterol (Obese Zucker rats [5]) [mg/dL] | Triglyceride (Obese Zucker rats [5]) [mg/dL] | further results
Chromium tris(5-hydroxytryptophan) [Cr(5HTP)3] | 359.61 | 44517.99 | 11831.51 | 589.26 | 1932.18 | 94.32 ± 11.71 | 13.35 ± 8.28 | 25.64 ± 2.39 | 45.89 ± 4.53 | 1.93 | 585.25 | 5.04 | 16.15 | 167.00 | 25.00 | 267.43 | 68.84 | 2.72 | 184.77 | 452.96 | Anion Gap (Obese Zucker rats [4]): 29.43; BUN (Blood Urea Nitrogen) (Obese Zucker rats [4]): 22.86 mg/dL; BUN/CRT Ratio (Obese Zucker rats [4]): 57.29; CRT (Creatinine) (Obese Zucker rats [4]): 0.40 mg/dL; Total Bilirubin (Obese Zucker rats [4]): 0.10 mg/dL
Chromium Glucodinicotinate [Cr(nic)2Gluc] | 388.37 | 48851.14 | 11448.39 | 530.74 | 1977.46 | 81.59 ± 5.21 | 29.40 ± 8.87 | 22.25 ± 1.58 | 45.10 ± 3.76 | 2.00 | 474.38 | 4.62 | 15.21 | 138.00 | 27.00 | 238.67 | 65.71 | 3.06 | 197.33 | 534.43 | BUN/CRT Ratio (Obese Zucker rats [6]): 53.67; Anion Gap (Obese Zucker rats [4]): 29.00; BUN (Blood Urea Nitrogen) (Obese Zucker rats [4]): 21.33 mg/dL; CRT (Creatinine) (Obese Zucker rats [4]): 0.40 mg/dL; Total Bilirubin (Obese Zucker rats [4]): 0.10 mg/dL
CCC(=O)[O-].CCC(=O)[O-].CCC(=O)[O-].[Cr+3] [CrProp, Chromium Propionate, reference compound] | 393.47 | 49851.91 | 12903.52 | 820.04 | 4497.83 | 90.50 ± 14.02 | 41.14 ± 10.06 | 26.95 ± 1.13 | 47.19 ± 5.07 | 2.18 | 549.49 | 4.76 | 16.90 | 207.00 | 32.20 | 347.25 | 64.19 | 2.68 | 170.56 | 456.14 | Anion Gap (Obese Zucker rats [4]): 29.20; BUN (Blood Urea Nitrogen) (Obese Zucker rats [4]): 22.25 mg/dL; BUN/CRT Ratio (Obese Zucker rats [4]): 53.40; CRT (Creatinine) (Obese Zucker rats [4]): 0.40 mg/dL; Total Bilirubin (Obese Zucker rats [4]): 0.10 mg/dL
Chromium Triphenylalanine [Cr(Phe)3, reference compound] | 387.92 | 48555.98 | 11243.47 | 533.12 | 2064.89 | 89.82 ± 8.55 | 15.92 ± 7.76 | 29.62 ± 1.01 | 53.11 ± 4.76 | 2.01 | 549.70 | 4.50 | 15.04 | 186.29 | 30.00 | 276.43 | 60.82 | 2.84 | 169.68 | 467.04 | Anion Gap (Obese Zucker rats [4]): 29.00; BUN (Blood Urea Nitrogen) (Obese Zucker rats [4]): 20.71 mg/dL; BUN/CRT Ratio (Obese Zucker rats [4]): 52.14; CRT (Creatinine) (Obese Zucker rats [4]): 0.40 mg/dL; Total Bilirubin (Obese Zucker rats [4]): 0.10 mg/dL
Chromium Tryptophanate [CrTrp] | 601.72 | 60593.24 | 11122.93 | 609.82 | 2578.59 | 86.62 ± 6.81 | 36.61 ± 14.89 | 20.03 ± 0.96 | 45.14 ± 2.77 | 1.78 | 402.77 | 4.54 | 14.16 | 124.29 | 30.00 | 237.43 | 60.54 | 3.46 | 208.09 | 921.22 | Anion Gap (Obese Zucker rats [4]): 30.14; BUN (Blood Urea Nitrogen) (Obese Zucker rats [4]): 17.43 mg/dL; BUN/CRT Ratio (Obese Zucker rats [4]): 45.86; CRT (Creatinine) (Obese Zucker rats [4]): 0.39 mg/dL; Total Bilirubin (Obese Zucker rats [4]): 0.10 mg/dL
Chromium Cinnamate [CrCin] | 379.18 | 47905.13 | 11507.60 | 587.35 | 2428.69 | 92.94 ± 13.21 | 8.62 ± 4.90 | 29.24 ± 0.61 | 48.71 ± 1.25 | 3.12 | 557.37 | 5.00 | 15.61 |  |  |  | 65.44 | 2.94 | 191.11 | 507.35 | ALT (Alanine Aminotransferease) (Obese Zucker rats [6]): 158.71 u/L; AP (Alkaline phosphatase) (Obese Zucker rats [6]): 30.71 u/L; AST (Aspartate Aminotransferase) (Obese Zucker rats [6]): 230.14 u/L; Anion Gap (Obese Zucker rats [6]): 29.86; BUN (Blood Urea Nitrogen) (Obese Zucker rats [6]): 21.43 mg/dL; BUN/CRT Ratio (Obese Zucker rats [6]): 51.86; CRT (Creatinine) (Obese Zucker rats [6]): 0.41 mg/dL; Total Bilirubin (Obese Zucker rats [6]): 0.10 mg/dL
Chromium Picolinate + Biotin [CrP + Biotin] |  |  |  |  |  |  |  |  |  |  |  |  |  |  |  |  |  |  |  |  | ALT (Alanine Aminotransferease) (Obese Zucker rats [6]): 100.71 u/L; AP (Alkaline phosphatase) (Obese Zucker rats [6]): 64.00 u/L; AST (Aspartate Aminotransferase) (Obese Zucker rats [6]): 160.29 u/L; Anion Gap (Obese Zucker rats [6]): 25.86; BUN (Blood Urea Nitrogen) (Obese Zucker rats [6]): 19.14 mg/dL; BUN/CRT Ratio (Obese Zucker rats [6]): 46.50; CRT (Creatinine) (Obese Zucker rats [6]): 0.41 mg/dL; Total Bilirubin (Obese Zucker rats [6]): 0.10 mg/dL
